According to ChEMBL document CHEMBL1140477 (Bioorg Med Chem, 2007):

Target: T1, 3-hydroxy-3-methylglutaryl-coenzyme A reductase (Rattus norvegicus, UniProt P51639)
T1 sequence (P51639 whole entry): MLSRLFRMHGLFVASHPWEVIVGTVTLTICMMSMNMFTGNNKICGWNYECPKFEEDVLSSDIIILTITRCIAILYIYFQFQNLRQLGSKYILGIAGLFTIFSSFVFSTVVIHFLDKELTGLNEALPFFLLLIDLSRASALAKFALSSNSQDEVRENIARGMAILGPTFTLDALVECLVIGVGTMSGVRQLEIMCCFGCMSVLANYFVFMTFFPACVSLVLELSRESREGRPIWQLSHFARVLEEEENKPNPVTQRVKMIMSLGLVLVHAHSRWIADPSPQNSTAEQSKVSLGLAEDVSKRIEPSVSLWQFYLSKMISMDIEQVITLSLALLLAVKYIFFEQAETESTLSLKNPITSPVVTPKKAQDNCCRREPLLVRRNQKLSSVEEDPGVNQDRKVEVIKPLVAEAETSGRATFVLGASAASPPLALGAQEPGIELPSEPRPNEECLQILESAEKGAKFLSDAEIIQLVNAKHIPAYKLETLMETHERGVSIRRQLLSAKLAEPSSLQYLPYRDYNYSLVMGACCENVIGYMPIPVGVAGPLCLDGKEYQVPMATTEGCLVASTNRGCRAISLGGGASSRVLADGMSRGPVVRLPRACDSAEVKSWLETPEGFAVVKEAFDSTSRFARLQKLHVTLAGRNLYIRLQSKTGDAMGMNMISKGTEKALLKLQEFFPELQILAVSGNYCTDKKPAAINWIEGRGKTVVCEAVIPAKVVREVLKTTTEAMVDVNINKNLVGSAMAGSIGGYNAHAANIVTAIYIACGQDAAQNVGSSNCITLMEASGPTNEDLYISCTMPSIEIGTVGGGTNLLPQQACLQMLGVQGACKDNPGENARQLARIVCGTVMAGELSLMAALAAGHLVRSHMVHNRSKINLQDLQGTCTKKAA
Experiment: Inhibition of Holtzman-Sprague-Dawley rat liver HMG CoA reductase after 30 mins

IC50 [µM]	Compound
32.5	O=C1C[C@H](O)C[C@@H](/C=C/c2cnc3cc(Sc4ccccc4)c(Sc4ccccc4)cc3c2Sc2ccccc2)O1
15.4	COc1cccc(Sc2cc3ncc(/C=C/[C@@H]4C[C@@H](O)CC(=O)O4)c(Sc4cccc(OC)c4)c3cc2Sc2cccc(OC)c2)c1
4.35	CC(C)c1ccc(Sc2cc3c(Sc4ccc(C(C)C)cc4)c(/C=C/[C@@H]4C[C@@H](O)CC(=O)O4)cnc3c(Sc3ccc(C(C)C)cc3)c2Sc2ccc(C(C)C)cc2)cc1
12.7	CC(C)c1ccc(Sc2c(/C=C/[C@@H]3C[C@@H](O)CC(=O)O3)cnc3ccccc23)cc1
22.1	CC(C)c1ccc(Sc2c(/C=C/[C@@H]3C[C@@H](O)CC(=O)O3)cnc3cc(Cl)c(F)cc23)cc1
10.7	O=C1C[C@H](O)C[C@@H](/C=C/c2cnc3c(F)c(F)c(F)cc3c2Sc2ccccc2)O1
4.41	O=C1C[C@H](O)C[C@@H](/C=C/c2cnc3cc(Sc4ccccc4)c(F)cc3c2Sc2ccccc2)O1
38.9	O=C1C[C@H](O)C[C@@H](/C=C/c2cnc3cc(Sc4ccc(F)cc4)c(F)cc3c2Sc2ccc(F)cc2)O1
14.2	CC(C)c1ccc(Sc2cc3ncc(/C=C/[C@@H]4C[C@@H](O)CC(=O)O4)c(Sc4ccc(C(C)C)cc4)c3cc2Sc2ccc(C(C)C)cc2)cc1
74.6	COc1cccc(Sc2c(F)cc3c(Sc4cccc(OC)c4)c(/C=C/[C@@H]4C[C@@H](O)CC(=O)O4)cnc3c2Sc2cccc(OC)c2)c1
15.8	CC(C)c1ccc(Sc2ccc3c(Sc4ccc(C(C)C)cc4)c(/C=C/[C@@H]4C[C@@H](O)CC(=O)O4)cnc3c2)cc1
49.7	COc1cccc(Sc2c(F)cc3c(Sc4cccc(OC)c4)c(/C=C/[C@@H]4C[C@@H](O)CC(=O)O4)cnc3c2F)c1
18.6	O=C1C[C@H](O)C[C@@H](/C=C/c2cnc3ccccc3c2Sc2ccc(F)cc2)O1
10.6	O=C(O)C[C@H](O)C[C@H](O)/C=C/c1c(C2CC2)nc2ccccc2c1-c1ccc(F)cc1 [PITAVASTATIN CALCIUM]
